Data on four molecules can be found in patent US8999980B2, “Oxazine derivatives” (Shionogi & Co., Ltd., priority 2009, dated 2015).

The test concerns the target Recombinant human BACE1 (Homo sapiens (Human), UniProt P56817). Briefly: Assay of BACE1 inhibiting activity. The class given is biochemical. The note with it: read-out: IC50 (50% inhibitory concentration against the enzymatic activity); Recombinant human BACE1 7.4 nmol/L, substrate peptide 18 nmol/L, pH 5.0, 30° C., 3 hours. As to the method: 48.5 μL of substrate peptide solution (Biotin-XSEVNLDAEFRHDSGC-Eu: X=ε-amino-n-capronic acid, Eu=Europium cryptate) was added to each well of 96-hole half-area plate (a black plate: Costar), and after addition of 0.5 μl of the test compound (dissolved in N,N′-dimethyl formaldehyde) and 1 μl of Recombinant human BACE1(R&D Systems), the reaction mixture was incubated at 30° C. for 3 hours. The substrate peptide was synthesized by reacting Cryptate TBPCOOH mono SMP (CIS bio international) with Biotin-XSEVNLDAEFRHDSGC (Peptide Institute, Inc.).
After the incubation for reaction, 50 μl of 8.0 μg/ml Streptavidin-XL665 (CIS bio international) dissolved in phosphate buffer (150 mmol/L K2HPO4—KH2PO4, pH 7.0, 0.008% Triton X-100, 0.8 mol/L KF) was added to each well and left stand at 30° C. for an hour.

Chain of Recombinant human BACE1 (P56817 46-501): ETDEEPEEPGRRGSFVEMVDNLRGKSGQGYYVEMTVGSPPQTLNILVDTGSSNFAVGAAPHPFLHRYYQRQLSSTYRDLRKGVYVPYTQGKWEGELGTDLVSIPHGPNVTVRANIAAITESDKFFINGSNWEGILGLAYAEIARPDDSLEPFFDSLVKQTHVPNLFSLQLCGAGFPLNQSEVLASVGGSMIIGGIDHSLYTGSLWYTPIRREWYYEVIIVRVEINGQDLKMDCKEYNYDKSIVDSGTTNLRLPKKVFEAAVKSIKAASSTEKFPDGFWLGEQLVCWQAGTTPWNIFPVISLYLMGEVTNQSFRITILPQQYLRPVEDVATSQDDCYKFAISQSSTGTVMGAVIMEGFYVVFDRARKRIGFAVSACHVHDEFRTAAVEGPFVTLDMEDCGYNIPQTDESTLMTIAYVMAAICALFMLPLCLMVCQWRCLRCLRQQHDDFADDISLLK

`C=C1C[C@@](C)(c2cc(NC(=O)c3ncc(F)cc3F)ccc2F)N=C(N)O1` [Compound I-5]: the IC50 was no more than 30 µM.

As for `C=C1C[C@@](C)(c2cc(NC(=O)c3cnc(OC)cn3)ccc2F)N=C(N)O1` [Compound I-3], the IC50 is no more than 30 µM.

`C=C1C[C@@](C)(c2cc(NC(=O)c3ccc(Cl)cn3)ccc2F)N=C(N)O1` [Compound I-2]: the IC50 stood at 0.027 µM.

Turning to `C=C1C[C@@](C)(c2cc(NC(=O)c3ncc(Cl)cc3Cl)ccc2F)N=C(N)O1` [Compound I-4], the IC50 is no more than 30 µM.
